From patent US8940722B2, “Compounds for modulation of orphan nuclear receptor RAR-related orphan receptor-gamma (RORγ, NR1F3) activity and for the treatment of chronic inflammatory and autoimmune disease” (Phenex Pharmaceuticals AG, priority 2010, dated 2015) come the findings set out here.

For orientation: IC50 means the point on the concentration scale where inhibition reaches its midpoint.

Several values for one entry are separate records, joined by “and”; a condition that tells them apart may be missing. Identical values can stand only once. Where only a bound is given, the exact number is not on record here.

The target of the assay is T1, RORγ ligand binding domain (LBD) (Homo sapiens, UniProt P51449).
T1 construct: made in house; host or cells: E. coli BL-21 (BL3), vector pDEST15
T1 sequence (P51449 269-508 limits assumed): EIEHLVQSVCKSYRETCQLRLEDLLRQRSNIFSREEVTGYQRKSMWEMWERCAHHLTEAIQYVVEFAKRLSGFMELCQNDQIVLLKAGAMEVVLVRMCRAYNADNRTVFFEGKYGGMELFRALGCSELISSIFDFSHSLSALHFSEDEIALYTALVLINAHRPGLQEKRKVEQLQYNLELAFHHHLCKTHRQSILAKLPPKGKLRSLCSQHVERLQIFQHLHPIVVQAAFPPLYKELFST
The assay is described as follows: TR-FRET Activity Assay (RORγ-LBD / coactivator peptide interaction). Format: biochemical. As to conditions: Table 2; read-out: RORγ activity in the TR-FRET Activity Assay (IC50 FRET), Group. The source says:
This method measures the ability of putative ligands to modulate the interaction between the purified bacterial expressed RORγ ligand binding domain (LBD) and synthetic N-terminally biotinylated peptides which are derived from nuclear receptor coactivator proteins such as but not limited to SRC1 (NcoA1), SRC2 (NcoA2, TIF2), SRC3 (NcoA3), PGC1α, PGC1β, CBP, GRIP1, TRAP220, RIP140.
The ligand-binding domain (LBD) of RORγ was expressed as fusion protein with GST in […] cells using the vector pDEST15. Cells were lysed by lysozyme-treatment and sonication, and the fusion proteins purified over glutathione sepharose (Pharmacia) according to the manufacturers instructions. For screening of compounds for their influence on the RORγ-peptide interaction, the LANCE technology (Perkin Elmer) was applied. This method relies on the binding dependent energy transfer from a donor to an acceptor fluorophor attached to the binding partner of interest. For ease of handling and reduction of background from compound fluorescence LANCE technology makes use of generic fluorophore labels and time resolved detection assays were done in a final volume of 25 μL in a 384 well plate, in a Tris-based buffer system (20 mM Tris-HCl pH6.8; 60 mM KCl, 1 mM DTT; 5 mM MgCl2; 35 ng/μL BSA), containing 20-60 ng/well recombinantly expressed RORγ-LBD fused to GST, 200-600 nM N-terminally biotinylated peptide, 200 ng/well Streptavidin-xIAPC conjugate (Prozyme) and 6-10 ng/well Eu W1024—antiGST (Perkin Elmer). DMSO content of the samples was kept at 1%.
After generation of the Tris-based buffer system, the potentially RORγ modulating ligands were diluted. […] The LANCE signal was detected by a Perkin Elmer EnVision™ Multilabel Counter. The results were visualized by plotting the ratio between the emitted light at 665 nm and 615 nm. […] Ligands that promote the complex formation induce a concentration-dependent increase in time-resolved fluorescent signal.
To assess the antagonistic potential of the compounds, IC50 values were determined using a Ligand Sensing Assay based on Time-resolved Fluorescence Energy Transfer (TR-FRET) as described above. The normalised TR-FRET assay values, using the following equation: 1000*665 nm measurement value/615 nm measurement value, were transferred to the program GraphPad Prism to generate graphs and dose response curves using the following equation: • Equation: Sigmoidal dose-response (variable slope) Y=Bottom+(Top−Bottom)/(1+10^((Log EC50−X)*HillSlope))
This is identical to the “four parameter logistic equation”. The IC50 values are calculated using this equation.
In general terms: Time-resolved FRET reads energy transfer from a long-lived donor to a nearby acceptor.

Turning to `O=S(=O)(c1c(Cl)cccc1Cl)N1Cc2ccccc2COCC1Cc1ccccc1` (stereo not shown) [1/23], the IC50 was 0.5 to 2 µM.

As for `O=S(=O)(c1cccc2cccnc12)N1Cc2ccccc2COC[C@H]1COCc1ccccc1` [16/1], the IC50 was 0.5 to 2 µM.

Turning to `O=S(=O)(c1cccc2cccnc12)N1Cc2ccccc2COC[C@H]1CC1CC1` [Preparative Example 20, (R)-4-(Cyclopropylmethyl)-5-(quinolin-8-ylsulfonyl)-3,4,5,6-tetrahydro-1H-benzo[f][1,4]oxazocine], the concentration for half-maximal inhibition (IC50) is less than 0.5 µM.

As to `O=S(=O)(c1cc(F)ccc1N1CCOCC1)N1Cc2ccccc2COCC1Cc1ccccc1` (stereo not shown) [compound 12], the IC50 was more than 2 µM.

As for `O=S(=O)(c1cc(Cl)ccc1F)N1Cc2ccccc2COCC1Cc1ccccc1` (stereo not shown) [1/18], the IC50 was less than 0.5 µM.

As for `COc1ccccc1S(=O)(=O)N1Cc2c(Br)cccc2COCC1Cc1ccccc1` (stereo not shown) [3/1], the IC50 is more than 2 µM.

With `COc1ccccc1S(=O)(=O)N1Cc2ccccc2CN(C)CC1Cc1ccccc1` (stereo not shown) [Preparative Example 2, 3-Benzyl-2-(2-methoxyphenylsulfonyl)-5-methyl-1,2,3,4,5,6-hexahydrobenzo-[f][1,4]-diazocine], the IC50 was 0.5 to 2 µM.

On to `CC(C)(C)OC[C@@H]1COCc2ncccc2CN1S(=O)(=O)c1c(F)cccc1F` [6/4], for which the IC50 was more than 2 µM.

As for `COc1ccc(S(=O)(=O)N2Cc3ccccc3COCC2Cc2ccccc2)cc1` (stereo not shown) [1/29], the IC50 is more than 2 µM.

Turning to `O=S(=O)(c1cccc2cccnc12)N1Cc2ccccc2COC[C@H]1CN1CCCCC1` [17/2], the IC50 was more than 2 µM.

Consider `O=S(=O)(c1ccccc1OC(F)(F)F)N1Cc2nccn2CCC[C@H]1Cc1ccccc1` [31/2], for which the IC50 lay in the range of 0.5 to 2 µM.

As for `CCC(C)CC1COCc2ccccc2CN1S(=O)(=O)c1cccc2cccnc12` (stereo not shown) [1/43], the IC50 was less than 0.5 µM.

In the case of `O=S(=O)(c1cccc2nonc12)N1Cc2ccccc2COCC1Cc1ccccc1` (stereo not shown) [1/10], the IC50 is less than 0.5 µM.

In the case of `COc1ccccc1S(=O)(=O)N1Cc2ccccc2OCCC1Cc1ccccc1` (stereo not shown) [compound 4], the IC50 was 0.5 to 2 µM.

Take `Cc1nnc(C[C@@H]2COCc3ccccc3CN2S(=O)(=O)c2cccc3cccnc23)o1` [Preparative Example 27, (R)-4-((5-Methyl-1,3,4-oxadiazol-2-yl)methyl)-5-(quinolin-8-ylsulfonyl)-3,4,5,6-tetrahydro-1H-benzo[f][1,4]oxazocine]: the half-inhibitory concentration (IC50) was more than 2 µM.

Regarding `COc1ccccc1S(=O)(=O)N1Cc2c(C#N)cccc2COCC1Cc1ccccc1` (stereo not shown) [5/2], the concentration for half-maximal inhibition (IC50) was more than 2 µM.

Regarding `COc1cccc(CC2COCc3ccccc3CN2S(=O)(=O)c2cccc3cccnc23)c1` (stereo not shown) [1/38], the IC50 was less than 0.5 µM.

Take `CC(C)(C)OC[C@@H]1COCc2ncccc2CN1S(=O)(=O)c1cccc2cccnc12` [6/1]: the IC50 is more than 2 µM.

As to `COc1ccccc1S(=O)(=O)N1Cc2ccccc2COCC1Cc1cccc(-c2cncnc2)c1` (stereo not shown) [5/5], the IC50 was more than 2 µM.

Take `COc1ccccc1S(=O)(=O)N1Cc2c(cccc2OC)COCC1Cc1ccccc1` (stereo not shown) [5/1]: the concentration for half-maximal inhibition (IC50) was more than 2 µM.

As to `COc1ccccc1S(=O)(=O)N1Cc2ccccc2COC[C@H]1Cc1ccccc1` [1/2], the concentration for half-maximal inhibition (IC50) was < 0.5 µM and > 2 µM.

Turning to `CC(C)(C)OC[C@@H]1COCc2ncccc2CN1S(=O)(=O)c1ccccc1OC(F)(F)F` [6/2], the half-maximal inhibitory concentration (IC50) was less than 0.5 µM.

Regarding `O=S(=O)(c1ccccc1C(F)(F)F)N1Cc2ccccc2COCC1Cc1ccccc1` (stereo not shown) [1/25], the half-maximal inhibitory concentration (IC50) is 0.5 to 2 µM.

In the case of `Cc1nn(C)c(Cl)c1S(=O)(=O)N1Cc2ccccc2COCC1Cc1ccccc1` (stereo not shown) [1/32], the IC50 is more than 2 µM.

On to `COc1ccccc1S(=O)(=O)N1Cc2ccc(F)cc2COCC1Cc1ccccc1` (stereo not shown) [1/35], for which the IC50 is more than 2 µM.

As for `CC(C)(O)C[C@@H]1COCc2ccccc2CN1S(=O)(=O)c1cccc2cccnc12` [Preparative Example 22, (R)-2-Methyl-1-(5-(quinolin-8-ylsulfonyl)-3,4,5,6-tetrahydro-1H-benzo[f][1,4]oxazocin-4-yl)propan-2-ol], the IC50 is more than 2 µM.

As to `COC(=O)c1ccccc1S(=O)(=O)N1Cc2ccccc2COCC1Cc1ccccc1` (stereo not shown) [1/39], the IC50 was 0.5 to 2 µM.

`O=S(=O)(c1cc(F)ccc1OCCN1CCOCC1)N1Cc2ccccc2COCC1Cc1ccccc1` (stereo not shown) [Preparative Example 11]: the IC50 is more than 2 µM.

In the case of `O=S(=O)(c1cc(C(F)(F)F)ccc1F)N1Cc2ccccc2COCC1Cc1ccccc1` (stereo not shown) [1/24], the IC50 is less than 0.5 µM.

With `Cc1ccc2nsnc2c1S(=O)(=O)N1Cc2ccccc2COCC1Cc1ccccc1` (stereo not shown) [1/13], the IC50 lay within 0.5 to 2 µM.

For the molecule `O=S(=O)(c1c(Cl)ccc2nonc12)N1Cc2ccccc2COCC1Cc1ccccc1` (stereo not shown) [1/11], the IC50 was 0.5 to 2 µM.

In the case of `CN(C)C(=O)C[C@@H]1COCc2ccccc2CN1S(=O)(=O)c1cccc2cccnc12` [Preparative Example 26, (R)—N,N-Dimethyl-2-(5-(quinolin-8-ylsulfonyl)-3,4,5,6-tetrahydro-1H-benzo[f][1,4]oxazocin-4-yl)acetamide], the IC50 was more than 2 µM.

In the case of `COc1cccc(S(=O)(=O)N2Cc3ccccc3COCC2Cc2ccccc2)c1` (stereo not shown) [1/28], the IC50 lay within 0.5 to 2 µM.

As for `CC(C)(C)OC[C@@H]1COCc2ncccc2CN1S(=O)(=O)c1cccc2c1OCC2` [6/5], the IC50 is 0.5 to 2 µM.

For `O=S(=O)(c1cccc2c1OCC2)N1Cc2ccccc2COCC1Cc1ccccc1` (stereo not shown) [1/9], the IC50 was less than 0.5 µM.

Take `COc1ccccc1S(=O)(=O)N1Cc2cccc(OC)c2COCC1Cc1ccccc1` (stereo not shown) [1/36]: the IC50 lay within 0.5 to 2 µM.

Turning to `N#Cc1ccc(Cl)cc1S(=O)(=O)N1Cc2ccccc2COCC1Cc1ccccc1` (stereo not shown) [1/19], the IC50 is less than 0.5 µM.

In the case of `C=CC[C@@H]1COCc2ccccc2CN1S(=O)(=O)c1cccc2cccnc12` [Preparative Example 18, (R)-4-Allyl-5-(quinolin-8-ylsulfonyl)-3,4,5,6-tetrahydro-1H-benzo[f][1,4]oxazocine], the IC50 was 0.5 to 2 µM.

Take `COc1ccccc1S(=O)(=O)N1Cc2ccccc2CS(=O)(=O)CC1Cc1ccccc1` (stereo not shown) [compound 29]: the IC50 is more than 2 µM.

As to `COc1ccccc1S(=O)(=O)N1Cc2ccccc2COCC1Cc1ccc(F)cc1` (stereo not shown) [1/37], the IC50 is 0.5 to 2 µM.

In the case of `COc1ccccc1S(=O)(=O)N1Cc2ccccc2COCC1CC(C)C` (stereo not shown) [1/41], the concentration for half-maximal inhibition (IC50) lay in the range of 0.5 to 2 µM.

Consider `COc1cccc(-c2cccc(CC3COCc4ccccc4CN3S(=O)(=O)c3ccccc3OC)c2)n1` (stereo not shown) [5/6], for which the 50% inhibitory concentration (IC50) was more than 2 µM.

Turning to `COC[C@@H]1COCc2ccccc2CN1S(=O)(=O)c1cccc2cccnc12` [Preparative Example 16, (R)-4-(Methoxymethyl)-5-(quinolin-8-ylsulfonyl)-3,4,5,6-tetrahydro-1H-benzo[f][1,4]oxazocine], the IC50 was more than 2 µM.

Take `Cc1ccc(Cl)cc1S(=O)(=O)N1Cc2ccccc2COCC1Cc1ccccc1` (stereo not shown) [1/20]: the IC50 is 0.5 to 2 µM.

In the case of `COc1ccc2c(c1)CN(S(=O)(=O)c1ccccc1OC)C(Cc1ccccc1)COC2` (stereo not shown) [1/34], the IC50 was more than 2 µM.

Consider `COCCOC[C@@H]1COCc2ccccc2CN1S(=O)(=O)c1cccc2cccnc12` [16/2], for which the IC50 was more than 2 µM.

As for `O=S(=O)(c1cc(Cl)sc1Cl)N1Cc2ccccc2COCC1Cc1ccccc1` (stereo not shown) [1/27], the IC50 is more than 2 µM.

In the case of `CN1Cc2ccccc2CN(S(=O)(=O)c2cccc3cccnc23)[C@H](Cc2ccccc2)C1=O` [compound 9], the IC50 is more than 2 µM.

On to `O=S(=O)(c1cccc2cccnc12)N1Cc2ccccc2COC[C@H]1Cc1cccnc1` [compound 7], for which the IC50 is 0.5 to 2 µM.

`CCOc1ccc(F)cc1S(=O)(=O)N1Cc2cccnc2COC[C@H]1COC(C)(C)C` [6/3]: the IC50 was in the range of 0.5 to 2 µM.

Take `O=S(=O)(c1ccccc1OC(F)(F)F)N1Cc2nnc(C(F)(F)F)n2CCC[C@H]1Cc1ccccc1` [Preparative Example 31, (S)-8-Benzyl-9-((2-(trifluoromethoxy)phenyl)sulfonyl)-3-(trifluoromethyl)-5,6,7,8,9,10-hexahydro-[1,2,4]triazolo[4,3-a][1,4]diazocine]: the IC50 was more than 2 µM.

Take `Cc1c(F)cccc1S(=O)(=O)N1Cc2ccccc2COCC1Cc1ccccc1` (stereo not shown) [1/17]: the IC50 was 0.5 to 2 µM.
